According to patent US12514251B2, “Fused heterocyclic compounds and their use as pest control agents” (priority 2020, dated 2026):

Key:
Type in all cases: in vivo
Helicoverpa armigera = assay: Helicoverpa armigera, diet incorporation method; conditions: third instar larvae, 96 h after release, dead + moribund vs untreated control, read-out: percent mortality
Protocol: (§1) The diet incorporation method was used, in which the required quantity of the test compound was weighed and dissolved in a tube containing solvent solution. The tube was put on a vortex at 2000 rpm for 90 min for proper mixing. Semi-synthetic diet was incorporated into this solution when the temperature was approximately 50° C. in the bioassay containers. Compound and diet were stirred thoroughly for proper mixing and allowed to cool for 30 min. The solidified diet was cut into equal pieces, and then each piece was transferred into one cell of a bio-assay tray. A single starved third instar larva was released into each of the cells of the bioassay trays and the tray was covered with a lid. The bio-assay trays were then kept under laboratory conditions at a temperature of 25° C. and a relative humidity of 70%. Observations on dead, moribund and alive larvae were recorded 96 h after the release of the larvae. Percent mortality was calculated by combining dead and moribund larvae and comparing the result to the one of the untreated control.

Plutella xylostella = assay: Plutella xylostella, leaf dip method; conditions: foliar, cabbage leaf dip, second instar larvae, 72 h after release, dead + moribund vs untreated control, read-out: percent mortality
Outline: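 Cabbage leaves were dipped for 10 s in compound diluted with 0.01% Triton-X, shade dried and offered singly to second instar larvae. Trays were held at 25° C. and 70% relative humidity. Dead plus moribund larvae were scored at 72 h, and percent mortality was expressed relative to untreated control.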

Spodoptera litura = assay: Spodoptera litura, diet incorporation method; conditions: third instar larvae, 96 h after release, dead + moribund vs untreated control, read-out: percent mortality
Protocol: as §1, with “covered with the lid. The” for “covered with a lid. The”, “release of larvae. Percent” for “release of the larvae. Percent”

Row | Structure (SMILES) | mortality at 300 ppm (Helicoverpa armigera) [%] | mortality at 300 ppm (Plutella xylostella) [%] | mortality at 300 ppm (Spodoptera litura) [%]
1 | CCS(=O)(=O)c1ccc(-n2cnc(C(F)(F)F)n2)nc1-c1ccn2nc(C(F)(F)F)cc2n1 [Compound 4, 5-(3-(ethylsulfonyl)-6-(3-(trifluoromethyl)-1H-1,2,4-triazol-1-yl)pyridin-2-yl)-2-(trifluoromethyl)pyrazolo[1,5-a]pyrimidine] | ≥ 70 | ≥ 70 | ≥ 70
2 | CCS(=O)(=O)c1ccc(-n2ncn(-c3ccc(Cl)cc3)c2=O)nc1-c1ccn2nc(C(F)(F)F)cc2n1 [Compound 7, 4-(4-chlorophenyl)-2-(5-(ethylsulfonyl)-6-(2-(trifluoromethyl)pyrazolo[1,5-a]pyrimidin-5-yl)pyridin-2-yl)-2,4-dihydro-3H-1,2,4-triazol-3-one] | ≥ 70 | ≥ 70 | –
3 | CCS(=O)(=O)c1ccc(-n2ncn(-c3cc(Cl)cc(Cl)c3)c2=O)nc1-c1ccn2nc(C(F)(F)F)cc2n1 [Compound 8, 4-(3,5-dichlorophenyl)-2-(5-(ethylsulfonyl)-6-(2-(trifluoromethyl)pyrazolo[1,5-a]pyrimidin-5-yl)pyridin-2-yl)-2,4-dihydro-3H-1,2,4-triazol-3-one] | ≥ 70 | ≥ 70 | –
4 | CCS(=O)(=O)c1ccc(-c2ccc(OC(F)(F)F)cc2)nc1-c1ccn2nc(C(F)(F)F)cc2n1 [Compound 17, 5-(3-(ethylsulfonyl)-6-(4-(trifluoromethoxy)phenyl)pyridin-2-yl)-2-(trifluoromethyl)pyrazolo[1,5-a]pyrimidine] | – | ≥ 70 | ≥ 70
5 | CCS(=O)(=O)c1cc(Br)cnc1-c1ccn2nc(C(F)(F)F)cc2n1 [Compound 29, 5-(5-bromo-3-(ethylsulfonyl)pyridin-2-yl)-2-(trifluoromethyl)pyrazolo[1,5-a]pyrimidine] | ≥ 70 | ≥ 70 | ≥ 70
6 | CCS(=O)(=O)c1ccc(-n2ccc(C(F)(F)F)n2)nc1-c1ccn2nc(C(F)(F)F)cc2n1 [Compound 34, 5-(3-(ethylsulfonyl)-6-(3-(trifluoromethyl)-1H-pyrazol-1-yl)pyridin-2-yl)-2-(trifluoromethyl)pyrazolo[1,5-a]pyrimidine] | ≥ 70 | ≥ 70 | –
7 | CCS(=O)(=O)c1cc(-c2ccn3nc(C(F)(F)F)cc3n2)cnc1-n1ccc(C(F)(F)F)n1 [Compound 37, 5-(5-(ethylsulfonyl)-6-(3-(trifluoromethyl)-1H-pyrazol-1-yl)pyridin-3-yl)-2-(trifluoromethyl)pyrazolo[1,5-a]pyrimidine] | – | ≥ 70 | ≥ 70
8 | CCS(=O)(=O)c1cc(-n2nc(C(F)(F)F)cc2C)cnc1-c1ccn2nc(C(F)(F)F)cc2n1 [Compound 38, 5-(3-(ethylsulfonyl)-5-(5-methyl-3-(trifluoromethyl)-1H-pyrazol-1-yl)pyridin-2-yl)-2-(trifluoromethyl)pyrazolo[1,5-a]pyrimidine] | ≥ 70 | ≥ 70 | ≥ 70
9 | CCS(=O)(=O)c1cc(-c2ccn3nc(C(F)(F)F)cc3n2)cnc1-n1nccn1 [Compound 39, 5-(5-(ethylsulfonyl)-6-(2H-1,2,3-triazol-2-yl)pyridin-3-yl)-2-(trifluoromethyl)pyrazolo[1,5-a]pyrimidine] | ≥ 70 | ≥ 70 | ≥ 70
10 | CCS(=O)(=O)c1cc(-c2ccc(OC(F)(F)F)cc2)cnc1-c1ccn2nc(C(F)(F)F)cc2n1 [Compound 66, 5-(3-(ethylsulfonyl)-5-(4-(trifluoromethoxy)phenyl)pyridin-2-yl)-2-(trifluoromethyl)pyrazolo[1,5-a]pyrimidine] | ≥ 70 | ≥ 70 | ≥ 70
11 | CCS(=O)(=O)c1cc(-n2cc(F)cn2)cnc1-c1ccn2nc(C(F)(F)F)cc2n1 [Compound 70, 5-(3-(ethylsulfonyl)-5-(4-fluoro-1H-pyrazol-1-yl)pyridin-2-yl)-2-(trifluoromethyl)pyrazolo[1,5-a]pyrimidine] | ≥ 70 | ≥ 70 | –
12 | CCS(=O)(=O)c1cc(-c2ccn3nc(C(F)(F)F)cc3n2)cnc1-n1nc2ccc(C(F)(F)F)cn2c1=O [Compound 75, 2-(3-(ethylsulfonyl)-5-(2-(trifluoromethyl)pyrazolo[1,5-a]pyrimidin-5-yl)pyridin-2-yl)-6-(trifluoromethyl)-[1,2,4]triazolo[4,3-a]pyridin-3(2H)-one] | ≥ 70 | ≥ 70 | –
13 | CCS(=O)(=O)c1cc(-c2cc(Cl)cc(Cl)c2)cnc1-c1ccn2nc(C(F)(F)F)cc2n1 [Compound 76, 5-(5-(3,5-dichlorophenyl)-3-(ethylsulfonyl)pyridin-2-yl)-2-(trifluoromethyl)pyrazolo[1,5-a]pyrimidine] | ≥ 70 | – | ≥ 70
14 | CCS(=O)(=O)c1cc(-c2ccc(F)cc2)cnc1-c1ccn2nc(C(F)(F)F)cc2n1 [Compound 94, 5-(3-(ethylsulfonyl)-5-(4-fluorophenyl)pyridin-2-yl)-2-(trifluoromethyl)pyrazolo[1,5-a]pyrimidine] | ≥ 70 | ≥ 70 | ≥ 70
15 | CCS(=O)(=O)c1cc(-c2ccc(OC(F)(F)C(F)F)cc2)cnc1-c1ccn2nc(C(F)(F)F)cc2n1 [Compound 96, 5-(3-(ethylsulfonyl)-5-(4-(1,1,2,2-tetrafluoroethoxy)phenyl)pyridin-2-yl)-2-(trifluoromethyl)pyrazolo[1,5-a]pyrimidine] | ≥ 70 | ≥ 70 | ≥ 70
16 | CCS(=O)(=O)c1cc(-c2ccc(OC(F)(F)F)cc2)cnc1-c1ccn2nc(C(F)(F)F)nc2n1 [Compound 100, 5-(3-(ethylsulfonyl)-5-(4-(trifluoromethoxy)phenyl)pyridin-2-yl)-2-(trifluoromethyl)-[1,2,4]triazolo[1,5-a]pyrimidine] | ≥ 70 | ≥ 70 | ≥ 70
17 | CCS(=O)(=O)c1cc(-c2ccc(Cl)cc2)cnc1-c1ccn2nc(C(F)(F)F)nc2n1 [Compound 101, 5-(5-(4-chlorophenyl)-3-(ethylsulfonyl)pyridin-2-yl)-2-(trifluoromethyl)-[1,2,4]triazolo[1,5-a]pyrimidine] | – | ≥ 70 | ≥ 70
18 | CCS(=O)(=O)c1cc(-c2cc(F)cc(Cl)c2)cnc1-c1ccn2nc(C(F)(F)F)cc2n1 [Compound 111, 5-(5-(3-chloro-5-fluorophenyl)-3-(ethylsulfonyl)pyridin-2-yl)-2-(trifluoromethyl)pyrazolo[1,5-a]pyrimidine] | ≥ 70 | ≥ 70 | ≥ 70
19 | CCS(=O)(=O)c1cc(-c2cc(F)cc(F)c2)cnc1-c1ccn2nc(C(F)(F)F)cc2n1 [Compound 125, 5-(5-(3,5-difluorophenyl)-3-(ethylsulfonyl)pyridin-2-yl)-2-(trifluoromethyl)pyrazolo[1,5-a]pyrimidine] | – | ≥ 70 | ≥ 70
20 | CCS(=O)(=O)c1cc(-c2ccc(Cl)c(F)c2)cnc1-c1ccn2nc(C(F)(F)F)cc2n1 [Compound 126, 5-(5-(4-chloro-3-fluorophenyl)-3-(ethylsulfonyl)pyridin-2-yl)-2-(trifluoromethyl)pyrazolo[1,5-a]pyrimidine] | ≥ 70 | ≥ 70 | ≥ 70
21 | CCS(=O)(=O)c1cc(-c2ccc(F)c(Cl)c2)cnc1-c1ccn2nc(C(F)(F)F)cc2n1 [Compound 127, 5-(5-(3-chloro-4-fluorophenyl)-3-(ethylsulfonyl)pyridin-2-yl)-2-(trifluoromethyl)pyrazolo[1,5-a]pyrimidine] | ≥ 70 | ≥ 70 | ≥ 70
22 | CCS(=O)(=O)c1cc(C=CC2CC2)cnc1-c1ccn2nc(C(F)(F)F)cc2n1 [Compound 205, 5-(5-(2-cyclopropylvinyl)-3-(ethylsulfonyl)pyridin-2-yl)-2-(trifluoromethyl)pyrazolo[1,5-a]pyrimidine] | – | ≥ 70 | ≥ 70
23 | CCS(=O)(=O)c1cc(OC(F)F)cnc1-c1ccn2nc(C(F)(F)F)cc2n1 [Compound 229, 5-(5-(difluoromethoxy)-3-(ethylsulfonyl)pyridin-2-yl)-2-(trifluoromethyl)pyrazolo[1,5-a]pyrimidine] | ≥ 70 | ≥ 70 | –
24 | CCS(=O)(=O)c1ccc(OC2CSC2)nc1-c1ccn2nc(C(F)(F)F)cc2n1 [Compound 243, 5-(3-(ethylsulfonyl)-6-(thietan-3-yloxy)pyridin-2-yl)-2-(trifluoromethyl)pyrazolo[1,5-a]pyrimidine] | – | ≥ 70 | –
